Reference: patent US12059502B2, “Composition and method for pretreating cancer” (Valcuria AB, priority 2016, dated 2024)
In brackets after ≈: the same amount, converted by molar mass. Where two headings read alike, the source gives them in different places.

Columns and labels:
[1] = Reported physicochemical properties of valproic acid; details: based on reported absorption and solubility values
[2] = according to Sigma-Aldrich; cited from earlier work
[3] = cited from earlier work
[4] = 70 kg person, Gugler and Unruh 1980
[5] = systemic disposition PK of the reported 250 mg single dose study

**Q.** Which “biopharmaceutical classification system (BCS) class” value [1] does the source give for `CCCC(CCC)C(=O)O` [VPA, Valproic acid] here?
**A.** The value was “class I”.

**Q.** And the solubility in water [2]?
**A.** The solubility in water was 50 mg/mL (≈ 347 mM).

**Q.** And the CL [3, 4]?
**A.** The CL was 0.61 L/h.

**Q.** And the F [3, 4]?
**A.** The F was 100%.

**Q.** What about the Vd [3, 4] of the same compound?
**A.** The Vd was 10.6 L.

**Q.** And the “rate of absorption of released drug, first order (kabs)” value ([3]; based on data of Dutta and Reed 2007)?
**A.** The value was 61 h⁻¹.

**Q.** What about the “time up to which intestinal absorption was measured by deconvolution” value ([3]; oral, Dutta and Zhang, 2004) of the same compound?
**A.** The value was “up to 22 hr”.

**Q.** What about the “bioavailability (F)” value ([3]; oral, immediate release, modified release and extended release formulations) of the same compound?
**A.** Its value is about 100%.

**Q.** What about the CL [3, 5] of the same compound?
**A.** The CL was 0.52 L/h.

**Q.** And the V [3, 5]?
**A.** The V was 7.1 L.
